IC50 data for 38 molecules are collected here from patent EP4624471A1, “PKMYT1 INHIBITOR, PREPARATION METHOD THEREFOR, AND PHARMACEUTICAL COMPOSITION AND USE THEREOF” (Shanghai Qilu Pharmaceutical Research and Development …, priority 2022, dated 2024).

Each structure is given as a SMILES string. Like-named read-outs stand apart in the source and are kept apart here.

For the assay, the target named is T1, PKMYT1 enzyme (Homo sapiens, UniProt Q99640).
T1 construct: purchased Thermo Scientific A33387
T1 sequence (Q99640 1-499): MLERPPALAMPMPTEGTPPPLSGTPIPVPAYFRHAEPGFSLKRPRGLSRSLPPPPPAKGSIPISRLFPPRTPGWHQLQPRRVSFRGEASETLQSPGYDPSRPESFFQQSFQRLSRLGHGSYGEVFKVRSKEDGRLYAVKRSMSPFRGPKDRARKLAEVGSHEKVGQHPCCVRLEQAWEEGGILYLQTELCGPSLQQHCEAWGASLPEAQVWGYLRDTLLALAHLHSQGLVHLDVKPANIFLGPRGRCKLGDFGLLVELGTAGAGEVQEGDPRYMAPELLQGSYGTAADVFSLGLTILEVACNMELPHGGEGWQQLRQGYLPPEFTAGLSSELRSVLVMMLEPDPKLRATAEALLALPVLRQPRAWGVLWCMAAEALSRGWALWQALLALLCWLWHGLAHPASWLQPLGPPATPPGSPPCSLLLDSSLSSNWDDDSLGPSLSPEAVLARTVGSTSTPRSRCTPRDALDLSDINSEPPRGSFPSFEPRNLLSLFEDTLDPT
The assay is described as follows: PKMYT1 enzyme inhibition activity, ADP-GLO method. The class given is biochemical.

Setting [1] is: PKMYT1 enzyme 10 nM, ATP 5 µM, 37°C 90 minutes; read-out: ADP-GLO IC50.
Setting [2] is: read-out: ADP-GLO IC50; PKMYT1 enzyme 10 nM, ATP 5 µM, 37°C 90 minutes.

`C=C(C)c1cc2c(C(N)=O)c(N)n(-c3c(C)cc(F)c(O)c3C)c2nc1C` [Example 156]: under setting [1], the IC50 stood at 26.4 nM.
The same measure, in the same setting: the same measure for `C=Cc1ncc2c(C(N)=O)c(N)n(-c3c(C)ccc(O)c3C)c2n1` [Example 6, 6-Amino-7-(3-hydroxy-2,6-dimethylphenyl)-2-vinyl-7H-pyrrolo[2,3-d]pyrimidine-5-carboxamide]: 10.1 nM; for `Cc1cc(F)c(O)c(C)c1-n1c(N)c(C(N)=O)c2cc(CC(C)C)cnc21` [Example 147]: 13.6 nM.
Still for that read-out and setting: the same measure for `Cc1ccc(O)c(C)c1-n1c(N)c(C(N)=O)c2cnc(C(F)(F)F)nc21` [Example 4, 6-Amino-7-(3-hydroxy-2,6-dimethylphenyl)-2-(trifluoromethyl)-7H-pyrrolo[2,3-d]pyrimidine-5-carboxamide]: 25.4 nM; for `Cc1ncc2c(C(N)=O)c(N)n(-c3c(C)c(O)cc(F)c3C)c2c1F` (atropisomer, axis not shown) [Example 71.1]: 4.29 nM; for `Cc1ccc(O)c(C)c1-n1c(N)c(C(N)=O)c2cnc(C3=CCOCC3)nc21` [Example 16, 6-Amino-2-(3,6-dihydro-2H-pyran-4-yl)-7-(3-hydroxy-2,6-dimethylphenyl)-7H-pyrrolo[2,3-d]pyrimidine-5-carboxamide]: 11.7 nM.
Same read-out and setting: the same measure for `COC(C)(C)c1cnc2c(c1)c(C(N)=O)c(N)n2-c1c(C)cc(F)c(O)c1C` [Example 146]: 35.2 nM; for `Cc1ccc(O)c(C)c1-n1c(N)c(C(N)=O)c2cnc(C#CC3CC3)nc21` [Example 12, 6-Amino-2-(cyclopropylethynyl)-7-(3-hydroxy-2,6-dimethylphenyl)-7H-pyrrolo[2,3-d]pyrimidine-5-carboxamide]: 6.58 nM.
In the case of `Cc1cc(F)c(O)c(C)c1-n1c(N)c(C(N)=O)c2c3c(cnc21)CCC3` (atropisomer, axis not shown) [Example 186.2], the half-inhibitory concentration (IC50) under setting [1] is 3.91 nM.
As for `Cc1nc(Cl)c2c(C(N)=O)c(N)n(-c3c(C)ccc(O)c3C)c2n1` [Example 28, 6-Amino-4-chloro-7-(3-hydroxy-2,6-dimethylphenyl)-2-methyl-7H-pyrrolo[2,3-d]pyrimidine-5-carboxamide], the IC50 under setting [1] stood at 13.8 nM.
Still for that read-out and setting: to `CNc1ncc2c(C(N)=O)c(N)n(-c3c(C)ccc(O)c3C)c2n1` [Example 85] belongs 6.7 nM.
On to `Cc1ccc(O)c(C)c1-n1c(N)c(C(N)=O)c2cnc(NC3CC3)nc21` [Example 84], for which the IC50 under setting [1] worked out at 5.28 nM.
Same read-out and setting: the same measure for `Cc1cc2c(cn1)c(C(N)=O)c(N)n2-c1c(C)ccc(O)c1C` [Example 31, 2-Amino-1-(3-hydroxy-2,6-dimethylphenyl)-6-methyl-1H-pyrrolo[3,2-c]pyridine-3-carboxamide]: 11.1 nM.
Regarding `Cc1cc(F)c(O)c(C)c1-n1c(N)c(C(N)=O)c2cc(Cl)c(C)nc21` (atropisomer, axis not shown) [Example 60.2], under setting [1], the IC50 stood at 1.88 nM.
The same measure, in the same setting: the same measure for `Cc1cc(F)c(O)c(C)c1-n1c(N)c(C(N)=O)c2cc(C(C)(C)O)cnc21` [Example 145]: 24.3 nM.
As to `Cc1cc(F)c(O)c(C)c1-n1c(N)c(C(N)=O)c2cc3ccccc3nc21` [Example 180], the IC50 under setting [1] was 30.5 nM.
Still for that read-out and setting: the same measure for `Cc1nc2c(cc1C(=O)O)c(C(N)=O)c(N)n2-c1c(C)c(O)cc(F)c1C` [Example 90]: 90.7 nM.
In the case of `Cc1ccc(O)c(C)c1-n1c(N)c(C(N)=O)c2cc3c(nc21)CCO3` (racemic) [Example 190], the IC50 under setting [2] turned out to be 4.93 nM.
Turning to `Cc1cc(F)c(O)c(C)c1-n1c(N)c(C(N)=O)c2cc3c(nc21)CCC3` [Example 183], the IC50 under setting [1] was determined as 33.8 nM.
Still for that read-out and setting: the same measure for `Cc1c(O)cc(F)c(C)c1-n1c(N)c(C(N)=O)c2c(C)c3c(nc21)CCC3` [Example 182]: 85.7 nM; for `C=CCCc1cc2c(C(N)=O)c(N)n(-c3c(C)cc(F)c(O)c3C)c2nc1C` [Example 157]: 60.6 nM; for `Cc1cc(F)c(O)c(C)c1-n1c(N)c(C(N)=O)c2cc(C(F)(F)F)c(C)nc21` [Example 59, 2-Amino-1-(4-fluoro-3-hydroxy-2,6-dimethylphenyl)-6-methyl-5-(trifluoromethyl)-1H-pyrrolo[2,3-b]pyridine-3-carboxamide]: 8.67 nM.
On the same count and under the same terms, the same measure for `CCc1nc(C)nc2c1c(C(N)=O)c(N)n2-c1c(C)cc(F)c(O)c1C` [Example 67]: 54.6 nM.
Same read-out and setting: to `C=C(C)c1cnc2c(c1)c(C(N)=O)c(N)n2-c1c(C)cc(F)c(O)c1C` [Example 155] belongs 23.2 nM; to `Cc1ccc(O)c(C)c1-n1c(N)c(C(N)=O)c2cnc(N)nc21` [Example 40, 2,6-Diamino-7-(3-hydroxy-2,6-dimethylphenyl)-7H-pyrrolo[2,3-d]pyrimidine-5-carboxamide], 23.6 nM.
Turning to `Cc1cc(F)c(O)c(C)c1-n1c(N)c(C(N)=O)c2cc(CC(F)(F)F)c(C)nc21` [Example 174], the IC50 under setting [1] was 4.7 nM.
As to `Cc1ccc(O)c(C)c1-n1c(N)c(C(N)=O)c2cc3c(nc21)OC(F)(F)O3` [Example 178], the IC50 under setting [1] is 15.5 nM.
Same read-out and setting: to `Cc1cc2c(C(N)=O)c(N)n(-c3c(C)c(O)cc(F)c3C)c2nc1-c1ccccc1` [Example 137] belongs 36.2 nM.
Take `Cc1ccc(O)c(C)c1-n1c(N)c(C(N)=O)c2cc3c(nc21)CCO3` (atropisomer, axis not shown) [Example 190.2]: the IC50 under setting [2] was found to be 2.22 nM.
For the molecule `CCc1cc2c(C(N)=O)c(N)n(-c3c(C)cc(F)c(O)c3C)c2nc1C` (atropisomer, axis not shown) [Example 143], the IC50 under setting [1] turned out to be 18.2 nM.
Consider `CCc1ncc2c(C(N)=O)c(N)n(-c3c(C)ccc(O)c3C)c2n1` [Example 8, 6-Amino-2-ethyl-7-(3-hydroxy-2,6-dimethylphenyl)-7H-pyrrolo[2,3-d]pyrimidine-5-carboxamide], for which, under setting [1], the IC50 came out at 10.5 nM.
Same read-out and setting: to `Cc1cc2c(C(N)=O)c(N)n(-c3c(C)c(O)cc(F)c3C)c2nc1C(C)C` [Example 139] belongs 143 nM.
With `Cc1c(O)cc(F)c(C)c1-n1c(N)c(C(N)=O)c2cc(N3CCOCC3)cnc21` [Example 117], the IC50 under setting [1] was determined as 192 nM.
Same read-out and setting: to `CC(C)=Cc1ncc2c(C(N)=O)c(N)n(-c3c(C)ccc(O)c3C)c2n1` [Example 42, 6-Amino-7-(3-hydroxy-2,6-dimethylphenyl)-2-(2-methylprop-1-en-1-yl)-7H-pyrrolo[2,3-d]pyrimidine-5-carboxamide] belongs 6.62 nM; to `Cc1nc(C)c2c(C(N)=O)c(N)n(-c3c(C)ccc(O)c3C)c2n1` [Example 19, 6-Amino-7-(3-hydroxy-2,6-dimethylphenyl)-2,4-dimethyl-7H-pyrrolo[2,3-d]pyrimidine-5-carboxamide], 4.5 nM.
In the case of `Cc1ccc(O)c(C)c1-n1c(N)c(C(N)=O)c2cnc(C3CC3)nc21` [Example 41, 6-Amino-2-cyclopropyl-7-(3-hydroxy-2,6-dimethylphenyl)-7H-pyrrolo[2,3-d]pyrimidine-5-carboxamide], the IC50 under setting [1] is 11.2 nM.
On to `Cc1ccc(O)c(C)c1-n1c(N)c(C(N)=O)c2cnc(N3CCCC3)nc21` [Example 35, 6-Amino-7-(3-hydroxy-2,6-dimethylphenyl)-2-(pyrrolidin-1-yl)-7H-pyrrolo[2,3-d]pyrimidine-5-carboxamide], for which the IC50 under setting [1] was 37.8 nM.
In the case of `Cc1ccc(O)c(C)c1-n1c(N)c(C(N)=O)c2cnccc21` [Example 30, 2-Amino-1-(3-hydroxy-2,6-dimethylphenyl)-1H-pyrrolo[3,2-c]pyridine-3-carboxamide], the IC50 under setting [1] was 13.7 nM.
